The subject of one assay is washed human platelets. In words: Collagen-stimulated platelet aggregation (aggregometer). The format is cell-based. The note with it: 0.25 mM arachidonic acid added later; 2 μg/ml collagen; inhibitor of Examples 1 and 2 present. The method, then: Human platelets are washed in modified Tyrode's buffer with no Ca^++ with 0.2 mg/ml fibrinogen. The washed platelets are incubated at 37° C. for 2 minutes with the sample to be tested. Collagen at 1 or 2 μg/ml final concentration is added and platelet aggregation in an aggregometer is monitored. Inhibitory activity is defined as a decrease in the rate and/or extent of platelet aggregation.
The IC50 for this inhibition was 45 nM. Inhibition of collagen stimulation was overcome by later addition of 0.25 mM arachidonic acid.

We go through two molecules from patent US5324715A, “Protein for inhibiting collagen-stimulated platelet aggregation” (Merck & Co., Inc., priority 1993, dated 1994).

Take `CCCCC/C=C\C/C=C\C/C=C\C/C=C\CCCC(=O)O` [arachidonic acid]: the “Inhibition of collagen stimulation of platelet aggregation (by the Haementeria officinalis inhibitor) overcome by later addition” value with washed human platelets is “overcome”.

B1: collagen-stimulated platelet aggregation inhibitor isolated from Haementeria officinalis salivary gland extract (leech antiplatelet protein, LAPP) (protein)
chain: QDEDAGGAGDETSEGEDTTGSDETPSTGGGGDGGNEETITAGNGDCWSKRPGWKLPDNLLTKTEFTSVDECRKMCEESAVEPSCYILQINTETNECYRNNEGDVTWSSLQYDQPNVVQWHLHACSK
Turning to B1, in the assay with collagen, the IC50 of inhibition of collagen-stimulated platelet aggregation was 45 nM.
